Counter-ions that a name gives are not always drawn. A value given as a limit tells only on which side of the number the result lay.

The target in experiment [1] is T1, hNav1.7 (Homo sapiens (Human), UniProt Q15858). In words: Tritiated compound binding to membranes from cells heterologously expressing hNav1.7 and the β1 subunit (Nav1.7 LBA). As to conditions: competitive binding vs [3H]compound, membranes with hNav1.7 and β1 subunit; read-out: Nav1.7 LBA EVO IC50. The method in brief:
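Membranes from cells expressing hNav1.7 with β1 were incubated at room temperature with a tritiated competitive Nav1.7 inhibitor plus test compound in 100 mM NaCl, 20 mM Tris pH 7.4, 0.01% BSA; nonspecific binding was set with 1 μM unlabeled compound. Incubation was 18 h with […] radioligand, or 3 h with […]. Bound ligand was filtered and counted, and IC50 came from a 4-parameter fit.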
Target sequence in this assay (Q15858 whole entry, looked up): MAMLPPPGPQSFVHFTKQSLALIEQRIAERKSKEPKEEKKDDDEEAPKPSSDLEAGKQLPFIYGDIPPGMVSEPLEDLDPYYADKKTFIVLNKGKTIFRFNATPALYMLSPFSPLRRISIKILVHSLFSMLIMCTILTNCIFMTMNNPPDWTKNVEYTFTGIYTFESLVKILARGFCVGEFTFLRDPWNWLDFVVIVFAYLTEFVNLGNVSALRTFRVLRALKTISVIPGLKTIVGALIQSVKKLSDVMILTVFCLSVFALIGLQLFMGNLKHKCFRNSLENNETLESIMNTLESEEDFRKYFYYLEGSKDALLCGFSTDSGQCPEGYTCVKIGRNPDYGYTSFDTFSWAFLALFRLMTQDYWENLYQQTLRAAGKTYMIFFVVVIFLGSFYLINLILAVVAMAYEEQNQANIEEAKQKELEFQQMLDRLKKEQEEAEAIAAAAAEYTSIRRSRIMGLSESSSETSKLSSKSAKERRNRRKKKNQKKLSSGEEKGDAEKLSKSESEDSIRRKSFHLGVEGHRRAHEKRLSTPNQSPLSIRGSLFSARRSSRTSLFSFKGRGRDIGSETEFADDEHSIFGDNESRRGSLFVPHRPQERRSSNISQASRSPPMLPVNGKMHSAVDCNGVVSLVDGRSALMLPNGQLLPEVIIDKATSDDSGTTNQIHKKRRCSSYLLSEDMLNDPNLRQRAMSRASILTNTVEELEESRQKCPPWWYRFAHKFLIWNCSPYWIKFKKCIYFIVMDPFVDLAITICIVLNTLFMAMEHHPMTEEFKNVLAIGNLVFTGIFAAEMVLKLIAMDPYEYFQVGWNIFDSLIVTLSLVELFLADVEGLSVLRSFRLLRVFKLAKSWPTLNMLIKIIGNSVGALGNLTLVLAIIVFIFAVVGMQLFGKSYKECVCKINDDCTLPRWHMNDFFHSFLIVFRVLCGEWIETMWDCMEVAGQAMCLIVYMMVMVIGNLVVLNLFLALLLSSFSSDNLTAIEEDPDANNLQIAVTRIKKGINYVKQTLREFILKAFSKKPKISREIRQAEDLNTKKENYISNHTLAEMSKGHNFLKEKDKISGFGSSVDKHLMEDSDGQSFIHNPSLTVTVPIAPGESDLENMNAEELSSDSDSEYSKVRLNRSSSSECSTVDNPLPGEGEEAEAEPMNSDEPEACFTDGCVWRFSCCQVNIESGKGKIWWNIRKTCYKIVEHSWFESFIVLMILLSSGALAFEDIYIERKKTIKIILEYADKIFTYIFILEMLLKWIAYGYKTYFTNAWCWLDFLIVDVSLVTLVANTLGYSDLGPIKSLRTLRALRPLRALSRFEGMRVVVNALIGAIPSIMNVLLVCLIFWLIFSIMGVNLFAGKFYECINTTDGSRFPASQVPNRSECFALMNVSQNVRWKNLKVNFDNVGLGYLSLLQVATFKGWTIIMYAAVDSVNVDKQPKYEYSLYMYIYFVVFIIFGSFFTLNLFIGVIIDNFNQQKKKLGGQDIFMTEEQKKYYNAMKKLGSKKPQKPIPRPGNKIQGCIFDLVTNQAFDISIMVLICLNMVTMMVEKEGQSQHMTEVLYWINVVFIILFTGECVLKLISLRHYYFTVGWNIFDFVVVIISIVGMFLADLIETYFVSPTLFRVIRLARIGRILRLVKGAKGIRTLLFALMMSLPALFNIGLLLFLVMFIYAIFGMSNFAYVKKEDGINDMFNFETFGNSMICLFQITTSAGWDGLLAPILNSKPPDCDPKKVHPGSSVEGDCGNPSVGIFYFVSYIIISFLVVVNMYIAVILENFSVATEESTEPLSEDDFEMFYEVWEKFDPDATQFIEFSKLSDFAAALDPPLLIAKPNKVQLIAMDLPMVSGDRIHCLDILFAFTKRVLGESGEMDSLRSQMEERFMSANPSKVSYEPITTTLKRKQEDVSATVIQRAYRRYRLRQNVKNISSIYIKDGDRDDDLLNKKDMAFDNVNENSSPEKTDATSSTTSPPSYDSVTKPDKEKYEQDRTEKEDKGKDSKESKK
Target sequence in this assay (Q07699 whole entry partner, looked up): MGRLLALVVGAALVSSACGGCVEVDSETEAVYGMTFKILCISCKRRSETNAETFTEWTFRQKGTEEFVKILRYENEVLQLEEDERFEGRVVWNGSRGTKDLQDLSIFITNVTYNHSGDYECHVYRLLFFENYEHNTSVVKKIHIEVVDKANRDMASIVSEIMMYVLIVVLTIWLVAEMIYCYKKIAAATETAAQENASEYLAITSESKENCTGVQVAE

For experiment [2], the target named is T1, hNav1.7. Kind of experiment: Electrophysiological assay (EP), voltage clamp on Syncropatch 384PE, CHO cells stably expressing Nav1.7. Type of experiment: cell-based. The settings on record: holding potential −50 mV, 7.5 min compound incubation, read-out: EP_SP hNav1.7 EVO IC50. A digest of the protocol:
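Whole-cell automated patch clamp was run on CHO cells stably expressing human Nav1.7 cDNA, with internal solution CsCl/EGTA pH 7.2, external solution 80 mM NaCl pH 7.4, and 0.1% Pluronic F-127. From a −50 mV holding potential: −10 mV for 10 ms, −150 mV for 20 ms, then −10 mV for 10 ms, where current was measured. Inhibition was taken after 7.5 min compound incubation, with TTX added for full block.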
Target sequence in this assay (Q15858 other isoform, or with tags, fused parts or gaps): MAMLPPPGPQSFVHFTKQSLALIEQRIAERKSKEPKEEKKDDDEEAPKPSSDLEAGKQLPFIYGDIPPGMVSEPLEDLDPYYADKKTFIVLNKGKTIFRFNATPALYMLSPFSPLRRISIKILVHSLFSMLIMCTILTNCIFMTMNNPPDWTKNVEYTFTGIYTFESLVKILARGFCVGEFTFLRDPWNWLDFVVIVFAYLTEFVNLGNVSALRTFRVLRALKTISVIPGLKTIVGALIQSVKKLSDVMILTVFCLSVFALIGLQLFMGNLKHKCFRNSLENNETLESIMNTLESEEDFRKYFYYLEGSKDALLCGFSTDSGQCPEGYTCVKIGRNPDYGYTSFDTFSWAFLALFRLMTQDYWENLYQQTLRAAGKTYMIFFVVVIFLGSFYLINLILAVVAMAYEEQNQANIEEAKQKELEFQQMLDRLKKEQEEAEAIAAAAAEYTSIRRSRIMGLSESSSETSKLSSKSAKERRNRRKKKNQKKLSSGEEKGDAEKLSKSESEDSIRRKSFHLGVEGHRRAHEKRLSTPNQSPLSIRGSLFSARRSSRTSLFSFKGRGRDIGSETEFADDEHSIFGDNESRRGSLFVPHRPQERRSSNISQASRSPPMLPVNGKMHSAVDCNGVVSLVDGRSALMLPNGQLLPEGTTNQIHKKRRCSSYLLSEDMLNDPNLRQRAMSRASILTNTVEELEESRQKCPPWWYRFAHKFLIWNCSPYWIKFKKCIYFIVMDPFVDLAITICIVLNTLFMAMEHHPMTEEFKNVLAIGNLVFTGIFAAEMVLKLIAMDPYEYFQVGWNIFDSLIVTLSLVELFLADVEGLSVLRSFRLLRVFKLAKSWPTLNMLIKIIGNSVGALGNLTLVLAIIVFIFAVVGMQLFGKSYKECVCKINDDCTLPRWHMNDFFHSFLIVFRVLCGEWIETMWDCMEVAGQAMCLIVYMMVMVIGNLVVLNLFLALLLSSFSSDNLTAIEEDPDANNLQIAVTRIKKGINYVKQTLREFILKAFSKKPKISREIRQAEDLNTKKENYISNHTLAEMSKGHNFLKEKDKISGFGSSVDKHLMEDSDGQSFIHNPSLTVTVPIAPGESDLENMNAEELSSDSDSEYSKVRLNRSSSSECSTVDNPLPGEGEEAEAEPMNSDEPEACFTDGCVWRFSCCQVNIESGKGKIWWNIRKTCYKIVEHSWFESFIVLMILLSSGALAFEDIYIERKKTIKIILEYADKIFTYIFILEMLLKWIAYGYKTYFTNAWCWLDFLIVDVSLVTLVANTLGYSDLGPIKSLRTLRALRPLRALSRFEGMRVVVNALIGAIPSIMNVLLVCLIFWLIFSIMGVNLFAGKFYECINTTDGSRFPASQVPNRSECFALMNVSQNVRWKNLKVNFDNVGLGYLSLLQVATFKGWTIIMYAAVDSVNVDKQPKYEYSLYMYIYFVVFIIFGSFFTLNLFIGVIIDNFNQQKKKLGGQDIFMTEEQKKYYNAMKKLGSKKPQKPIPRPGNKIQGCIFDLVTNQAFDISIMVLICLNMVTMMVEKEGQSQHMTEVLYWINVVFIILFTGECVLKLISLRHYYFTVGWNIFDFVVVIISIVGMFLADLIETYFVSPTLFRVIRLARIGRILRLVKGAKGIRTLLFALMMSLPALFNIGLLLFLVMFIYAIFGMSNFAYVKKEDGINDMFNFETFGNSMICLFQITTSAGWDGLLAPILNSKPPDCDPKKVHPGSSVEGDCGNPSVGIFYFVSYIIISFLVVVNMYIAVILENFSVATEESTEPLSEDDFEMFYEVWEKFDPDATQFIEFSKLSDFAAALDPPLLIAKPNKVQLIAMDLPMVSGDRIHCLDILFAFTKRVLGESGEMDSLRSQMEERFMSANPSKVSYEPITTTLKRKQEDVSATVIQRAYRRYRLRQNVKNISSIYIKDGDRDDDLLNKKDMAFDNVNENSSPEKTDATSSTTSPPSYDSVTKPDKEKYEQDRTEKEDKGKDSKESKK

What is called IC50 is the concentration that gives 50% inhibition. Turning to `CN(C)[C@H]1C[C@@H](c2cccc(C(F)(F)F)c2)CC[C@@H]1N1C(=O)CCc2cc(S(=O)(=O)Nc3ccncn3)c(F)cc21` [Example 55, 1-((1S,2S,4S)-2-(Dimethylamino)-4-(3-(trifluoromethyl)phenyl)cyclohexyl)-7-fluoro-2-oxo-N-(pyrimidin-4-yl)-1,2,3,4-tetrahydroquinoline-6-sulfonamide], the IC50 was determined as 6.73 nM in experiment [1] and 2.68 nM in experiment [2].
The corresponding values for `O=CO.[2H]C([2H])([2H])N([C@H]1C[C@@H](c2cccc(C(F)(F)F)c2)CC[C@@H]1Nc1cc(F)c(S(=O)(=O)Nc2ccncn2)cc1Cl)C([2H])([2H])[2H]` [Example 9, 4-[[(1S,2S,4S)-2-[bis(trideuteriomethyl)amino]-4-[3-(trifluoromethyl)phenyl]-cyclohexyl]amino]-5-chloro-2-fluoro-N-pyrimidin-4-yl-benzenesulfonamide formate] are 0.681 nM and 0.694 nM.
Regarding `CN(C)[C@H]1C[C@@H](c2cccc(C(F)(F)F)c2)CC[C@@H]1Nc1c(F)cc(S(=O)(=O)Nc2ccncn2)cc1F` [Example 88, 4-(((1S,2S,4S)-2-(Dimethylamino)-4-(3-(trifluoromethyl)phenyl)cyclohexyl)amino)-3,5-difluoro-N-(pyrimidin-4-yl)benzenesulfonamide], the IC50 in experiment [1] was found to be 170 nM; in experiment [2] it was 17 nM.
The corresponding values for `CC(C)[C@H](N)C(=O)N[C@H]1C[C@@H](c2cccc(C(F)(F)F)c2)CC[C@@H]1Nc1cc(F)c(S(=O)(=O)Nc2ccncn2)cc1Cl` [Example 30, (S)-2-Amino-N-((1S,2S,5S)-2-((2-chloro-5-fluoro-4-(N-(pyrimidin-4-yl)sulfamoyl)-phenyl)amino)-5-(3-(trifluoromethyl)phenyl)cyclohexyl)-3-methylbutanamide formate] are 37.5 nM and 28.4 nM.
The corresponding values for `CN(C)[C@@H]1C[C@H](c2ccccc2C(F)(F)F)CC[C@H]1Nc1cc(F)c(S(=O)(=O)Nc2ccncn2)cc1Cl` (single isomer, unassigned) [Example 78] are 12.2 nM and 1.37 nM.
The corresponding values for `CN(C)[C@@H]1C[C@@](O)(c2cccc(C(F)(F)F)c2)CC[C@H]1Nc1cc(F)c(S(=O)(=O)Nc2ccncn2)cc1Cl` (single isomer, unassigned) [Example 38, formate] are at least 2000 nM and 9440 nM.
In the case of `CN(C)[C@H]1C[C@@H](c2cc(C(F)(F)F)ccc2F)CC[C@@H]1Nc1cc(F)c(S(=O)(=O)Nc2ccncn2)cc1Cl` [Example 17, 5-chloro-4-(((1S,2S,4S)-2-(dimethylamino)-4-(2-fluoro-5-(trifluoromethyl)phenyl)cyclohexyl)-amino)-2-fluoro-N-(pyrimidin-4-yl)benzenesulfonamide], the IC50 in experiment [1] was 1.03 nM; in experiment [2] it was 1.55 nM.
The corresponding values for `CN(C)[C@H]1C[C@@](O)(c2cccc(C(F)(F)F)c2)CC[C@@H]1Nc1cc(F)c(S(=O)(=O)Nc2ccncn2)cc1Cl` [Example 35, 5-chloro-4-(((1S,2S,4R)-2-(dimethylamino)-4-hydroxy-4-(3-(trifluoromethyl)phenyl)-cyclohexyl)amino)-2-fluoro-N-(pyrimidin-4-yl)benzenesulfonamide formate] are 3.95 nM and 1.92 nM.
The corresponding values for `CC(C)[C@H](N)C(=O)N(C)[C@H]1C[C@@H](c2cccc(C(F)(F)F)c2)CC[C@@H]1Nc1cc(F)c(S(=O)(=O)Nc2ccncn2)cc1Cl` [Example 31, (S)-2-amino-N-((1S,2S,5S)-2-((2-chloro-5-fluoro-4-(N-(pyrimidin-4-yl)sulfamoyl)-phenyl)amino)-5-(3-(trifluoromethyl)phenyl)cyclohexyl)-N,3-dimethylbutanamide formate] are 2.78 nM and 0.462 nM.
The corresponding values for `CN(C)[C@H]1C[C@@H](c2cccc(OC(F)(F)F)c2)CC[C@@H]1Nc1cc(F)c(S(=O)(=O)Nc2ccncn2)cc1F` [Example 19, 4-(((1S,2S,4S)-2-(dimethylamino)-4-(3-(trifluoromethoxy)phenyl)cyclohexyl)amino)-2,5-difluoro-N-(pyrimidin-4-yl)benzenesulfonamide] are 1.36 nM and 0.673 nM.
Turning to `O=C1COc2cc(S(=O)(=O)Nc3ccncn3)c(F)cc2N1[C@H]1CC[C@H](c2cccc(C(F)(F)F)c2)C[C@@H]1N1CCCC1` [Example 49, 6-Fluoro-3-oxo-N-(pyrimidin-4-yl)-4-((1S,2S,4S)-2-(pyrrolidin-1-yl)-4-(3-(trifluoromethyl)-phenyl)cyclohexyl)-3,4-dihydro-2H-benzo[b][1,4]oxazine-7-sulfonamide], the values for the IC50 in experiment [1] and in experiment [2] were 23.6 nM and 2.73 nM, respectively.
In the case of `CN(C)[C@H]1C[C@@H](c2cc(Cl)cc(C(F)(F)F)c2)CC[C@@H]1Nc1cc(F)c(S(=O)(=O)Nc2ccncn2)cc1Cl` [Example 24, 5-chloro-4-(((1S,2S,4S)-4-(3-chloro-5-(trifluoromethyl)phenyl)-2-(dimethylamino)cyclohexyl)-amino)-2-fluoro-N-(pyrimidin-4-yl)benzenesulfonamide], the IC50 stood at 0.583 nM in experiment [1] and 0.383 nM in experiment [2].
The corresponding values for `CN(C)[C@H]1C[C@@H](c2cccc(C(F)(F)F)c2)CC[C@@H]1Oc1cc(F)c(S(=O)(=O)Nc2ccncn2)cc1Br` [Example 56, 5-Bromo-4-(((1S,2S,4S)-2-(dimethylamino)-4-(3-(trifluoromethyl)phenyl)cyclohexyl)oxy)-2-fluoro-N-(pyrimidin-4-yl)benzenesulfonamide] are 1.92 nM and 0.528 nM.
The corresponding values for `CN(C)[C@H]1C[C@@H](c2cccc(C(F)(F)F)c2)CC[C@@H]1N(C)c1cc(F)c(S(=O)(=O)Nc2ccncn2)cc1Cl` [Example 51, 5-Chloro-4-(((1S,2S,4S)-2-(dimethylamino)-4-(3-(trifluoromethyl)phenyl)cyclohexyl)-(methyl)amino)-2-fluoro-N-(pyrimidin-4-yl)benzenesulfonamide formate] are 169 nM and 4.65 nM.
With `CN(C)[C@H]1C[C@@H](c2cccc(C(C)(F)F)c2)CC[C@@H]1Nc1cc(F)c(S(=O)(=O)Nc2ccncn2)cc1Cl` [Example 32, 5-chloro-4-(((1S,2S,4S)-4-(3-(1,1-difluoroethyl)phenyl)-2-(dimethylamino)-cyclohexyl)-amino)-2-fluoro-N-(pyrimidin-4-yl)benzenesulfonamide], the IC50 in experiment [1] turned out to be 2.04 nM; in experiment [2], 1.6 nM.
The corresponding values for `CN(C)[C@H]1C[C@@H](c2cccc(C3CCOCC3)c2)CC[C@@H]1Oc1cc(F)c(S(=O)(=O)Nc2ccncn2)cc1Cl` [Example 83] are 38.6 nM and 6.36 nM.
The corresponding values for `CN(C)[C@H]1CN(S(=O)(=O)c2cccc(C(F)(F)F)c2)CC[C@@H]1Nc1cc(F)c(S(=O)(=O)Nc2ccncn2)cc1Cl` [Example 73, 5-Chloro-4-(((3S,4S)-3-(dimethylamino)-1-((3-(trifluoromethyl)phenyl)sulfonyl)piperidin-4-yl)amino)-2-fluoro-N-(pyrimidin-4-yl)benzenesulfonamide formate] are 82.3 nM and 3.34 nM.

Source of the values: patent publication US11028075B2, “Therapeutic compounds and methods of use thereof” (GENENTECH, INC., priority 2018, dated 2021).
